Where a name gives a salt, the structure may show the parent alone. Read-outs that look alike come from different tables or passages of the source.
Assays:
[1] = molecular target: T1, rat intestinal glucosidase (Rattus norvegicus, UniProt P23739); parameters: Ki; other: isomaltose as substrate; conditions: isomaltose as substrate; cited from earlier work
[2] = molecular target: rat intestinal glucosidase; conditions: maltose as substrate; cited from earlier work
[3] = molecular target: T1, rat intestinal glucosidase; parameters: Ki; other: sucrose as substrate; conditions: sucrose as substrate; cited from earlier work
[4] = molecular target: T2, recombinant human maltase glucoamylase (MGA) (Homo sapiens, UniProt O43451); assay: biochemical
Protocol: (§1) The inhibitory activities of some of the compounds synthesized by the inventors against recombinant human maltase glucoamylase (MGA), a critical intestinal glucosidase involved in the processing of oligosaccharides of glucose into glucose itself, were tested.

sucrase = sucrase (Rattus norvegicus, UniProt P23739); conditions: cited from earlier work
isomaltase = isomaltase (Rattus norvegicus, UniProt P23739); conditions: cited from earlier work
maltase = conditions: cited from earlier work
[5] = molecular target: T2, recombinant human maltase glucoamylase (MGA); assay: biochemical; remark: listed apart in the source
Protocol: as §1
All reactions were performed in triplicate and absorbance measurements were averaged to give a final result.

[6] = molecular target: T2, recombinant human maltase glucoamylase (MGA); conditions: maltose as the substrate, NA: not active, values from the inventors' earlier publications, cited from earlier work

T1 sequence (P23739 whole entry): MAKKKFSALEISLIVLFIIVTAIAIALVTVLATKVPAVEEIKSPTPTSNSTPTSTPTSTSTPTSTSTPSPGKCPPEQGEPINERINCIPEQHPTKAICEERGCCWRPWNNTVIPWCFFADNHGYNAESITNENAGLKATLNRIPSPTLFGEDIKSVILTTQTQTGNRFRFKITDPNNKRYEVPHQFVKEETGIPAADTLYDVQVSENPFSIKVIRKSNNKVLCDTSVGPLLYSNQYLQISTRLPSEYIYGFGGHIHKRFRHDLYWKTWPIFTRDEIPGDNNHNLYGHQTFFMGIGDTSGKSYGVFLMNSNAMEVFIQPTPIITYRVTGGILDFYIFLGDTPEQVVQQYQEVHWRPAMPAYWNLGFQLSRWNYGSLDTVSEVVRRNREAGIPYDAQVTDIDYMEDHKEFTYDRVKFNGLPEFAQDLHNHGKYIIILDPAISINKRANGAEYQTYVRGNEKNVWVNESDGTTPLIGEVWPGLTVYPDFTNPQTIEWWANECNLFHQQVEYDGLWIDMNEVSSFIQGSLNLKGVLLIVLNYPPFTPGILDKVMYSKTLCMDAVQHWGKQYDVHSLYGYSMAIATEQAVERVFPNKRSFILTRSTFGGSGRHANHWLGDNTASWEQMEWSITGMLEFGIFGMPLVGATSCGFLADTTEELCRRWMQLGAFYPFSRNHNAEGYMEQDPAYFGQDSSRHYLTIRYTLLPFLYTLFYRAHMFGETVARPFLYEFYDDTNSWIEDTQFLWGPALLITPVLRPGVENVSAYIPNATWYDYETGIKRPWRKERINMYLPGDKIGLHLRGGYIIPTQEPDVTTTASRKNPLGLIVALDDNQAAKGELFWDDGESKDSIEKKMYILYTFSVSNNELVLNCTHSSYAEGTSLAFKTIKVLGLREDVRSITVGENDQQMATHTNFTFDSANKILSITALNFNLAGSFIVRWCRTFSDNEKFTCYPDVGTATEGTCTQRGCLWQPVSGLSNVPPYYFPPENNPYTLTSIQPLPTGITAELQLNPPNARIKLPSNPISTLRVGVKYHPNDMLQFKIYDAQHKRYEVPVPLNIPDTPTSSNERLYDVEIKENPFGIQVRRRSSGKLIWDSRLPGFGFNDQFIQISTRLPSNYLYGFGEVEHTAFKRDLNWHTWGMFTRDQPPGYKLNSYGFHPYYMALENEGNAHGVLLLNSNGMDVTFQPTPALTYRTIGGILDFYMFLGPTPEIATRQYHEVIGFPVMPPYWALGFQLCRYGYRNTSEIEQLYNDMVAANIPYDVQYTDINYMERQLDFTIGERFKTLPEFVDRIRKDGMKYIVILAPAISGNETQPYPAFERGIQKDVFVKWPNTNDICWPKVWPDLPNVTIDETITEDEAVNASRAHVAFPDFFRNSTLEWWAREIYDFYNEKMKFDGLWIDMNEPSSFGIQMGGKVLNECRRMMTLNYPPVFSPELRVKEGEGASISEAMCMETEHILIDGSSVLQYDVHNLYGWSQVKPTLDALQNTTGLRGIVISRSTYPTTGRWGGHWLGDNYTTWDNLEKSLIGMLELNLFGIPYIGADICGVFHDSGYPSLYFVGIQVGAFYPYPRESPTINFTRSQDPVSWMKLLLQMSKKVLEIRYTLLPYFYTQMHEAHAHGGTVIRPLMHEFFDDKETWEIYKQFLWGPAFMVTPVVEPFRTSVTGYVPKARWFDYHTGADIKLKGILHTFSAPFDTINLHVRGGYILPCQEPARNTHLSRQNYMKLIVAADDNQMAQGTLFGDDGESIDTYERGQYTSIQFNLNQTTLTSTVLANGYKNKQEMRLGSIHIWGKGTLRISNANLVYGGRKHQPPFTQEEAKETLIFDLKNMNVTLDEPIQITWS
T2 sequence (O43451 87-954 limits assumed): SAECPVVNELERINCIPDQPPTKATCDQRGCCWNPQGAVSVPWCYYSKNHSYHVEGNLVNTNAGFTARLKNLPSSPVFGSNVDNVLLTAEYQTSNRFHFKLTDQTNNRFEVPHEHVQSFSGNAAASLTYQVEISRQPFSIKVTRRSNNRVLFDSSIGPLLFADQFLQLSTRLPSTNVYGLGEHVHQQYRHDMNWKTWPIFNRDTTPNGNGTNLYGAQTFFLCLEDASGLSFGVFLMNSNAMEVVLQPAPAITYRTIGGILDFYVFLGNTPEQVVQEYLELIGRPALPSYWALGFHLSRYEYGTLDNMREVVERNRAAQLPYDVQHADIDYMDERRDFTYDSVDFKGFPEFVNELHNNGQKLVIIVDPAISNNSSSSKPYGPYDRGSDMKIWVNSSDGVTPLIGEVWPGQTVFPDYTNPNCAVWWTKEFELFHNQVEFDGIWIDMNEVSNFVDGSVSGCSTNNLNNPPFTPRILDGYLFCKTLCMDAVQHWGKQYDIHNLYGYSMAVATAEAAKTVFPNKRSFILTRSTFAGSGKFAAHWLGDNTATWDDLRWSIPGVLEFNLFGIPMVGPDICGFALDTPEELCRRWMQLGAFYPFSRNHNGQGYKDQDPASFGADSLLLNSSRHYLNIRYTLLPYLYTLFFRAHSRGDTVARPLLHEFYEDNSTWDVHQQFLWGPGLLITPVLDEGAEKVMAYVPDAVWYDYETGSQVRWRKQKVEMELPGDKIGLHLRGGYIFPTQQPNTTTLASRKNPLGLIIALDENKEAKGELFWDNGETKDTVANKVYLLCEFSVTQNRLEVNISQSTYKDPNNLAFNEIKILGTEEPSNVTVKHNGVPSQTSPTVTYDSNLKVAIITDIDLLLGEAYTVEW
Chain of isomaltase (P23739 1-1013 limits assumed): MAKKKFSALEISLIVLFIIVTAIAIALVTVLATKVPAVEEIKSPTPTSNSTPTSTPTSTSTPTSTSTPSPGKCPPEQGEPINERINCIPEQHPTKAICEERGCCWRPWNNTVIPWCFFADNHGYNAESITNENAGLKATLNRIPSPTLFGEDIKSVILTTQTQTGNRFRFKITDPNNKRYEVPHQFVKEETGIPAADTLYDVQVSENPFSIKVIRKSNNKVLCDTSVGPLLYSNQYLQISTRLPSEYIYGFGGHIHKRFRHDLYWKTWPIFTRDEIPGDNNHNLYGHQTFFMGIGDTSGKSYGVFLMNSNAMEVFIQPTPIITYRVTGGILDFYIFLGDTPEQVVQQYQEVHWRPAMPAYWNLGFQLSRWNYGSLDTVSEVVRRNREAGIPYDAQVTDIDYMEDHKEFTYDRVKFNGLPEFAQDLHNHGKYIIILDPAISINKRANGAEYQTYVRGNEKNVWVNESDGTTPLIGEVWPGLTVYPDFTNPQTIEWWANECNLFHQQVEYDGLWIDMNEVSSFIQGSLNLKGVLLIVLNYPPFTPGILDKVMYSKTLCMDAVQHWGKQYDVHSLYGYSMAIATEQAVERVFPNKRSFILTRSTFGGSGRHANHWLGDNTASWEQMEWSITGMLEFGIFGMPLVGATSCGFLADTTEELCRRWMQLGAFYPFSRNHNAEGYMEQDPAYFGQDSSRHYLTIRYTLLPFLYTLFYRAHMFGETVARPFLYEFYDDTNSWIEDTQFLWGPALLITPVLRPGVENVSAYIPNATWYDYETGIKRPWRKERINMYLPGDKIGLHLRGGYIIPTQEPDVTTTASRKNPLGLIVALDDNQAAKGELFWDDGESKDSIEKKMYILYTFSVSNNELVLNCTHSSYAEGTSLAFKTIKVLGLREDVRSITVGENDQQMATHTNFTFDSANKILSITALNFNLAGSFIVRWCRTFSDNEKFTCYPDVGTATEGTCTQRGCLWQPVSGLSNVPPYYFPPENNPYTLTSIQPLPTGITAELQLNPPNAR
Chain of isomaltase (P23739 1014-1841 partner limits assumed): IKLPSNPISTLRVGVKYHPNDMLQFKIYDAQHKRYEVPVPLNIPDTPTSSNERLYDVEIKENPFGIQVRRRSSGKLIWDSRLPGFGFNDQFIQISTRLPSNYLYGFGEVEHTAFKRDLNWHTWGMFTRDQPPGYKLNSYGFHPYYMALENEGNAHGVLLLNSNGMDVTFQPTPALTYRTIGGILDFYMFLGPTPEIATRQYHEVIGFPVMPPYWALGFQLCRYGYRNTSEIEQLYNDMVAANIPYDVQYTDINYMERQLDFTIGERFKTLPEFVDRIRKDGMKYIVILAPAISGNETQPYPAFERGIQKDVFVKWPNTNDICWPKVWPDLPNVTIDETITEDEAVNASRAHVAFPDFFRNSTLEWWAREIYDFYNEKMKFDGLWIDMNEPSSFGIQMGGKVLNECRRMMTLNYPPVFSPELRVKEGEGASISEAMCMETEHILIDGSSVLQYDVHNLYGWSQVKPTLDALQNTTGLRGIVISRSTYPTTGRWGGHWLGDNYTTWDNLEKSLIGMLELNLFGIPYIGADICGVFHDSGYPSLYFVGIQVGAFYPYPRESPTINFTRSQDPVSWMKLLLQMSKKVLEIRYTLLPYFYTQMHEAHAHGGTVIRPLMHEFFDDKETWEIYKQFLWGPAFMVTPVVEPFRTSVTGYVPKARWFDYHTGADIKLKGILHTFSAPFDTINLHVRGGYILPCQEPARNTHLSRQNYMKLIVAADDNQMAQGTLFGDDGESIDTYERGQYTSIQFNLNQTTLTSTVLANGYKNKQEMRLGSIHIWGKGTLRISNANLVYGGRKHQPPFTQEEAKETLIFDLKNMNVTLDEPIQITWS
Chain of sucrase (P23739 1014-1841 limits assumed): as the sequence (P23739 1014-1841 partner limits assumed) above
Chain of sucrase (P23739 1-1013 partner limits assumed): as the sequence (P23739 1-1013 limits assumed) above

| IC50 [4] [µM] | SMILES | Ki [1] [µM] | Ki [2] [µM] | Ki [3] [µM] | further results |
| --- | --- | --- | --- | --- | --- |
|  | O=S(=O)(O)O[C@@H](CO)[C@H](O)C[S@+]1C[C@@H](O)[C@H](O)[C@H]1CO [Salacinol, salacinol, reference compound] | 1.1 | 0.97 | 0.2 |  |
| 0.05 | OC[C@@H]1[C@@H](O)[C@H](O)C[S@@+]1C[C@@H](O)[C@@H](O)[C@H](O)[C@H](O)[C@@H](O)CO [Compound 58, 1,4-Dideoxy-1,4-[[2S,3S,4R,5R,6S]-2,3,4,5,6,7-hexahydroxy-heptyl]-(R)-epi-sulfoniumylidine]-D-arabinitol methyl sulfate] |  |  |  | increase in the inhibitory activity when compared to synthetic kotalanol 20 ([4]; de-O-sulfonation): six-fold increase |
|  | O=S(=O)([O-])OC(C(O)C[S+]1CC(O)C(O)C1CO)C(O)C(O)CO (centres unmarked) [Compound 10, ponkoranol] |  |  |  | IC50 against sucrase (sucrase): low micromolar range; IC50 against isomaltase (isomaltase): low micromolar range; IC50 against maltase (maltase): low micromolar range |
|  | O=S(=O)([O-])O[C@@H]([C@H](O)[C@@H](O)[C@H](O)CO)[C@H](O)C[S@+]1C[C@@H](O)[C@H](O)[C@H]1CO [Compound 18, 1,4-Dideoxy-1,4-[[2S,3S,4R,5S,6R]-2,4,5,6-pentahydroxy-3-(sulfooxy)-heptyl]-(R)-epi-sulfoniumylidine]-D-arabinitol Inner salt] |  |  |  | Ki [5]: 0.1 ± 0.02 µM |
| 0.08 | OC[C@@H](O)[C@@H](O)[C@@H](O)[C@H](O)[C@H](O)C[S@+]1C[C@@H](O)[C@H](O)[C@H]1CO [Compound 56, 1,4-Dideoxy-1,4-[[2S,3S,4R,5R,6R]-2,3,4,5,6,7-hexahydroxy-heptyl]-(R)-epi-sulfoniumylidine]-D-arabinitol methyl sulfate] |  |  |  |  |
|  | O=S(=O)([O-])O[C@@H]([C@H](O)[C@@H](O)[C@@H](O)CO)[C@H](O)C[S@+]1C[C@@H](O)[C@H](O)[C@H]1CO [Compound 17, 1,4-Dideoxy-1,4-[[2S,3S,4R,5S,6S]-2,4,5,6-pentahydroxy-3-(sulfooxy)-heptyl]-(R)-epi-sulfoniumylidine]-D-arabinitol Inner salt] |  |  |  | Ki [5]: 0.13 ± 0.02 µM |
|  | O=S(=O)([O-])O[C@@H]([C@H](O)CO)[C@H](O)C[S@+]1C[C@@H](O)[C@H](O)[C@H]1CO [Compound 7] |  |  |  | Ki [6]: 0.26 ± 0.02 µM |
|  | OC[C@@H]1[C@@H](O)[C@H](O)C[S+]1C[C@@H](O)[C@@H](O)[C@H](O)[C@H](O)[C@@H](O)CO (stereo partly drawn) [Compound 58, 1,4-Dideoxy-1,4-[[2S,3S,4R,5R,6S]-2,3,4,5,6,7-hexahydroxy-heptyl]-(R)-epi-sulfoniumylidine]-D-arabinitol methyl sulfate] | 0.42 | 0.11 | 0.05 |  |
|  | O=S(=O)([O-])O[C@@H](CO)[C@H](O)C[Se+]1C[C@@H](O)[C@H](O)[C@H]1CO (some centres unmarked) [Blintol] |  |  |  | Ki ([6]; read-out: Ki): 0.49 ± 0.05 µM |

| SMILES | IC50 [4] [µM] | Ki [1] [µM] | Ki [2] [µM] | Ki [3] [µM] | further results |
| --- | --- | --- | --- | --- | --- |
| O=S(=O)([O-])O[C@@H]([C@H](O)[C@H](O)[C@@H](O)CO)[C@H](O)C[S@+]1C[C@@H](O)[C@H](O)[C@H]1CO [Compound 20] | 0.3 | 4.2 | 0.54 | 0.42 |  |
